The experiment relates to RSV (Long). The experiment can be described thus: RSV cytopathic effect (CPE)-based viral replication assay. The format is cell-based, respiratory syncytial virus (RSV). The conditions noted are these: read-out: EC50 (nm). How it is done:
Example A: RSV Cytopathic Effect
Compounds of the invention are initially tested in a cytopathic effect (CPE)-based viral replication assay using immortalized cells and a laboratory strain of RSV (Long). This assay evaluates the ability of a compound to inhibit viral replication.
Assay plates are prepared by seeding 2,500 HEp-2 cells (ATCC) per well of a 384-well black clear-bottom plate (Greiner Bio-One) in 20 μL of assay media (defined as DMEM supplemented with 2% heat-inactivated fetal bovine serum and 1% Penicillin/Streptomycin). Assay plates are incubated overnight at 37° C. in an incubator containing 5% CO2. The following day, a 10-point serial dilution of test compound is prepared in DMSO. Compounds are subsequently diluted with assay media and 20 μL of diluted compound (containing 1.5% DMSO) is transferred to an assay plate for evaluation of antiviral activity.
For the CPE assay, cells are infected at a Multiplicity of Infection (MOI) of 0.015 using 20 μL of RSV Long (ATCC) diluted in assay media. The DMSO concentration is constant throughout the assay plate, including the negative and positive controls. The assay plate is incubated for 3 days at 37° C. in an incubator containing 5% CO2. Cell viability is evaluated with the addition of 10 μL of CellTiter-Glo (ProMega). Luminescence is measured using an EnVision plate reader (Perkin Elmer). EC50 values are calculated using the raw data from the CPE assays.
A general note: Cytopathic effects are the visible damage that an infection or toxin causes in cultured cells.

Where [1] appears, read: HEp-2 cells infected with RSV Long at MOI 0.015, 3 days at 37° C., cell viability by CellTiter-Glo luminescence.
The mark [2] stands for this setting: human respiratory syncytial virus, HEp-2, 72 h, HEp-2 cells infected with RSV Long at MOI 0.015, 3 days at 37° C., cell viability by CellTiter-Glo luminescence.

The source of these data is US20190002436A1, “RESPIRATORY SYNCYTIAL VIRUS INHIBITORS” (MEDIVIR AB, priority 2015, published 2019).

Like-named read-outs stand apart in the source and are kept apart here.

Usually EC50 stands for the concentration that produces a half-maximal response. In the case of `O=C1N(Cc2ncc3ccccc3c2-c2ccc(F)nc2)c2ccccc2C12CC(NCCF)C2` (single isomer, unassigned) [Example 87-1, 3-((2-fluoroethyl)amino)-1′-((4-(6-fluoropyridin-3-yl)isoquinolin-3-yl)methyl)spiro[cyclobutane-1,3′-indolin]-2′-one], the EC50 under setting [1] came out at 21 nM.
Same read-out and setting: the same measure for `O=C1N(Cc2ncc3ccccc3c2-c2ccc(F)nc2)c2ccccc2C12CC(NCCF)C2` (single isomer, unassigned) [Example 87-2, 3-((2-fluoroethyl)amino)-1′-((4-(6-fluoropyridin-3-yl)isoquinolin-3-yl)methyl)spiro[cyclobutane-1,3′-indolin]-2′-one]: 4.6 nM.
In the case of `O=c1n(Cc2ncc3ccccc3c2CCCCO)c2cnccc2n1C1CC1` [Example 1c, 1-cyclopropyl-3-((4-(4-hydroxybutyl)isoquinolin-3-yl)methyl)-1H-imidazo[4,5-c]pyridin-2(3H)-one], the EC50 under setting [2] came out at 13 nM.
`COC(=O)N1CCC(n2c(=O)n(Cc3ncc4ccccc4c3CCCCO)c3cnccc32)CC1` [Example 2d, Methyl 4-(3-((4-(4-hydroxybutyl)isoquinolin-3-yl)methyl)-2-oxo-2,3-dihydro-1H-imidazo[4,5-c]pyridin-1-yl)piperidine-1-carboxylate]: the EC50 under setting [2] was 2 nM.
For the compound `O=c1n(Cc2ncc3ccccc3c2CCCCO)c2cnccc2n1CC(F)(F)F` [Example 3c, 3-((4-(4-hydroxybutyl)isoquinolin-3-yl)methyl)-1-(2,2,2-trifluoroethyl)-1H-imidazo[4,5-c]pyridin-2(3H)-one], the EC50 under setting [2] came out at 23 nM.
Regarding `O=c1n(Cc2ncc3ccccc3c2CCCCO)c2cnccc2n1-c1ccc(F)cc1` [Example 4c, 1-(4-fluorophenyl)-3-((4-(4-hydroxybutyl)isoquinolin-3-yl)methyl)-1H-imidazo[4,5-c]pyridin-2(3H)-one], under setting [2], the EC50 came out at 20 nM.
Take `O=c1n(Cc2ncc3ccccc3c2CCCCO)c2ccccc2n1CC(F)(F)F` [Example 5c, 1-((4-(4-hydroxybutyl)isoquinolin-3-yl)methyl)-3-(2,2,2-trifluoroethyl)-1H-benzo[d]imidazol-2(3H)-one]: the EC50 under setting [2] turned out to be 19 nM.
On the same count and under the same terms, the same measure for `O=c1n(Cc2ncc3cc(F)ccc3c2CCCCO)c2cnccc2n1C1CC1` [Example 6g, 1-cyclopropyl-3-((7-fluoro-4-(4-hydroxybutyl)isoquinolin-3-yl)methyl)-1H-imidazo[4,5-c]pyridin-2(3H)-one]: 41 nM.
The same measure, in the same setting: the same measure for `COC(=O)N1CCC(n2c(=O)n(Cc3ncc4cc(F)ccc4c3CCCCO)c3cnccc32)CC1` [Example 7b, Methyl 4-(3-((7-fluoro-4-(4-hydroxybutyl)isoquinolin-3-yl)methyl)-2-oxo-2,3-dihydro-1H-imidazo[4,5-c]pyridin-1-yl)piperidine-1-carboxylate]: 11 nM.
For the compound `O=c1n(Cc2ncc3ccccc3c2CCCC(F)(F)F)c2cnccc2n1C1CC1` [Example 8e, 1-cyclopropyl-3-((4-(4,4,4-trifluorobutyl)isoquinolin-3-yl)methyl)-1H-imidazo[4,5-c]pyridin-2(3H)-one], the EC50 under setting [2] was determined as 9 nM.
As to `COC(=O)N1CCC(n2c(=O)n(Cc3ncc4ccccc4c3CCCC(F)(F)F)c3cnccc32)CC1` [Example 9b, methyl 4-(2-oxo-3-((4-(4,4,4-trifluorobutyl)isoquinolin-3-yl)methyl)-2,3-dihydro-1H-imidazo[4,5-c]pyridin-1-yl)piperidine-1-carboxylate], under setting [2], the EC50 turned out to be 4 nM.
For the compound `O=c1n(Cc2ncc3ccccc3c2-c2cccc(CO)c2)c2cnccc2n1C1CC1` [Example 10, 1-Cyclopropyl-3-((4-(3-(hydroxymethyl)phenyl)isoquinolin-3-yl)methyl)-1H-imidazo[4,5-c]pyridin-2(3H)-one], under setting [2], the EC50 amounted to 240 nM.
For `COC(=O)N1CCC2(CC1)C(=O)N(Cc1ncc3ccccc3c1CCCS(C)(=O)=O)c1cnccc12` [Example 11c, Methyl 1′-((4-(3-(methylsulfonyl)propyl)isoquinolin-3-yl)methyl)-2′-oxo-1′,2′-dihydrospiro[piperidine-4,3′-pyrrolo[2,3-c]pyridine]-1-carboxylate], the EC50 under setting [2] amounted to 88 nM.
For the compound `COC(=O)N1CCC2(CC1)C(=O)N(Cc1ncc3ccccc3c1-c1ccc(C#N)cc1)c1cnccc12` [Example 12b, Methyl 1′-((4-(4-cyanophenyl)isoquinolin-3-yl)methyl)-2′-oxo-1′,2′-dihydrospiro[piperidine-4,3′-pyrrolo[2,3-c]pyridine]-1-carboxylate], the EC50 under setting [2] was determined as 10 nM.
`COC(=O)N1CCC2(CC1)C(=O)N(Cc1ncc3ccccc3c1-c1ccc(C#N)nc1)c1cnccc12` [Example 13, Methyl 1′-((4-(6-cyanopyridin-3-yl)isoquinolin-3-yl)methyl)-2′-oxo-1′,2′-dihydrospiro[piperidine-4,3′-pyrrolo[2,3-c]pyridine]-1-carboxylate]: the EC50 (human respiratory syncytial virus, HEp-2, 72 h) was determined as 3 nM.
For `COC(=O)N1CCC(n2c(=O)n(Cc3ncc4ccccc4c3CCCCO)c3cc(F)c(F)cc32)CC1` [Example 14c, methyl 4-(5,6-difluoro-3-((4-(4-hydroxybutyl)isoquinolin-3-yl)methyl)-2-oxo-2,3-dihydro-1H-benzo[d]imidazol-1-yl)piperidine-1-carboxylate], under setting [2], the EC50 was found to be 75 nM.
For the compound `COC(=O)N1CCC(n2c(=O)n(Cc3ncc4ccccc4c3CCCCO)c3cncc(Cl)c32)CC1` [Example 15, Methyl 4-(7-chloro-3-((4-(4-hydroxybutyl)isoquinolin-3-yl)methyl)-2-oxo-2,3-dihydro-1H-imidazo[4,5-c]pyridin-1-yl)piperidine-1-carboxylate], the concentration giving a half-maximal response (EC50) under setting [2] is 2.2 nM.
Still for that read-out and setting: the same measure for `COC(=O)N1CCC(n2c(=O)n(Cc3ncc4ccccc4c3CCCCO)c3cccc(Cl)c32)CC1` [Example 16, Methyl 4-(7-chloro-3-((4-(4-hydroxybutyl)isoquinolin-3-yl)methyl)-2-oxo-2,3-dihydro-1H-benzo[d]imidazol-1-yl)piperidine-1-carboxylate]: 19 nM.
Turning to `COC(=O)N1CC2(CC(n3c(=O)n(Cc4ncc5ccccc5c4CCCCO)c4ccccc43)C2)C1` [Example 17, Methyl 6-(3-((4-(4-hydroxybutyl)isoquinolin-3-yl)methyl)-2-oxo-2,3-dihydro-1H-benzo[d]imidazol-1-yl)-2-azaspiro[3.3]heptane-2-carboxylate], under setting [2], the EC50 amounted to 58 nM.
In the case of `CS(=O)(=O)N1CCC(n2c(=O)n(Cc3ncc4ccccc4c3CCCCO)c3cnccc32)CC1` [Example 18c, 3-((4-(4-hydroxybutyl)isoquinolin-3-yl)methyl)-1-(1-(methylsulfonyl)piperidin-4-yl)-1H-imidazo[4,5-c]pyridin-2(3H)-one], the half-maximal effective concentration (EC50) under setting [2] worked out at 3.4 nM.
As to `O=c1n(Cc2ncc3cc(Cl)ccc3c2CCCCO)c2cnccc2n1C1CC1` [Example 19b, 3-((7-chloro-4-(4-hydroxybutyl)isoquinolin-3-yl)methyl)-1-cyclopropyl-1H-imidazo[4,5-c]pyridin-2(3H)-one], the EC50 under setting [2] was 110 nM.
In the case of `COC(=O)N1CCC(n2c(=O)n(Cc3ncc4cc(Cl)ccc4c3CCCCO)c3cnccc32)CC1` [Example 20, Methyl 4-(3-((7-chloro-4-(4-hydroxybutyl)isoquinolin-3-yl)methyl)-2-oxo-2,3-dihydro-1H-imidazo[4,5-c]pyridin-1-yl)piperidine-1-carboxylate], under setting [2], the EC50 was determined as 8.5 nM.
Still for that read-out and setting: the same measure for `COC(=O)N1CCC2(CC1)C(=O)N(Cc1ncc3ccccc3c1CCCCO)c1cnccc12` [Example 21b, Methyl 1′-((4-(4-hydroxybutyl)isoquinolin-3-yl)methyl)-2′-oxo-1′,2′-dihydrospiro[piperidine-4,3′-pyrrolo[2,3-c]pyridine]-1-carboxylate]: 6.4 nM; for `O=c1n(Cc2ncc3ccccc3c2CCCCO)c2cnccc2n1S(=O)(=O)C1CC1` [Example 22b, 1-(cyclopropylsulfonyl)-3-((4-(4-hydroxybutyl)isoquinolin-3-yl)methyl)-1H-imidazo[4,5-c]pyridin-2(3H)-one]: 15 nM; for `COC(=O)N1CCC(n2c(=O)n(Cc3ncc4cc(C#N)ccc4c3CCCCO)c3cnccc32)CC1` [Example 23b, methyl 4-(3-((7-cyano-4-(4-hydroxybutyl)isoquinolin-3-yl)methyl)-2-oxo-2,3-dihydro-1H-imidazo[4,5-c]pyridin-1-yl)piperidine-1-carboxylate]: 41 nM.
As to `COC(=O)N1CCC(n2c(=O)n(Cc3ncc4cc(CN)ccc4c3CCCCO)c3cnccc32)CC1` [Example 24, Methyl 4-(3-((7-(aminomethyl)-4-(4-hydroxybutyl)isoquinolin-3-yl)methyl)-2-oxo-2,3-dihydro-1H-imidazo[4,5-c]pyridin-1-yl)piperidine-1-carboxylate], under setting [2], the EC50 amounted to 2.4 nM.
On to `N#Cc1ccc2c(CCCCO)c(Cn3c(=O)n(C4CC4)c4ccncc43)ncc2c1` [Example 25, 3-((1-cyclopropyl-2-oxo-1H-imidazo[4,5-c]pyridin-3(2H)-yl)methyl)-4-(4-hydroxybutyl)isoquinoline-7-carbonitrile], for which the EC50 under setting [2] came to 280 nM.
